Results taken from publication PMC13252604, “First Generation Proteolysis Targeting Chimeras (PROTACs) for the Treatment of Progeria” (Advanced Science, 2026).

System: HGADFN167 Lmna^G608G/G608G fibroblasts
Assay: Transmission electron microscopy of mitochondria
Format: cell-based, human
Details: HGADFN167, 5 µM, 20 days
Experimental: Supporting Figure S6. Basal respiration and electronic microscopy analysis of mitochondria in wild type and HGPS cells. (A) PROTAC 2 increases basal respiration (OCR, oxygen consumption rate) in human progeroid cells. Bar graphs show mean±sem of 2 independent experiments performed in duplicate. HGADFN167 LmnaG608G/G608G (progeroid) and HGADFN168 Lmna+/+ (wild type) fibroblasts, provided by the Progeria Research Foundation, were incubated with vehicle or 2 (5 µM) for 20 days. *, p<0.05 vs G608G cells, one-way ANOVA. […]
Mitochondria were evaluated for the integrity of the membrane, matrix and cristae, and were classified as mitochondria with normal morphology (black arrows) or damaged mitochondria (red arrows, with alterations in the membrane, presence of inclusions in the matrix and concentric cristae or “onion-like” mitochondria). […]
Cells were harvested by trypsin, centrifuged and washed with PBS. […] The mixture was then allowed to incubate for 30min at 37 °C in the dark and samples were finally analysed by FACScalibur (Becton Dickinson) flow cytometer […]
Cells were incubated for 1 h in 1% OsO4 at room temperature and then thoroughly washed with milliQ water. […] The samples were analysed and examined in the transmission electron microscope JEM 1010 at 80 […]

Q: CC1(C)Oc2cc3oc(=O)ccc3cc2C[C@@H]1OC(=O)CCCCCNc1cccc2c1C(=O)N(C1CCC(=O)NC1=O)C2=O (stereo partly shown) [compound 2] was tested. Which “number of healthy mitochondria (electron microscopy)” value did it give?
A: The value was “enhances”.
